{"source": "patent US20150031572A1", "about": "“MEANS AND METHODS FOR ASSESSING NEURONAL TOXICITY” (priority 2012, published 2015)", "assay": "Plasma metabolite profiling (GC-MS, LC-MS, SPE-LC-MS) of rats dosed once daily over 28 days; treatment ratios versus untreated control", "type": "in vivo, rat", "settings": "for 5-Oxoproline, plasma metabolite ratio versus control / Alanine, plasma metabolite ratio versus control / Arginine (second line of the table), plasma metabolite ratio versus control / Arginine, plasma metabolite ratio versus control / Citrulline, plasma metabolite ratio versus control / Glutamine, plasma metabolite ratio versus control / Proline, plasma metabolite ratio versus control / Tyrosine, plasma metabolite ratio versus control: high dose; for Creatinine, ratio versus control: Table 12a", "description": "A group of each 5 male and female rats was dosed once daily with the indicated compounds (see Table 10, below for compounds, applied doses and administration details) over 28 days.\nEach dose group in the studies consisted of five rats per sex. Additional groups of each 5 male and female animals served as controls. Before starting the treatment period, animals, which were 62-64 days old when supplied, were acclimatized to the housing and environmental conditions for 7 days. All animals of the animal population were kept under the same constant temperature (20-24±3° C.) and the same constant humidity (30-70%). The animals of the animal population were fed ad libitum. The food to be used was essentially free of chemical or microbial contaminants. Drinking water was also offered ad libitum. Accordingly, the water was free of chemical and microbial contaminants as laid down in the European Drinking Water Directive 98/83/EG. The illumination period was 12 hours light followed by 12 hours darkness (12 hours light, from 6:00 to 18:00, and 12 hours darkness, from 18:00 to 6:00). […] The test substances (compounds) in the Tables 1 to 9 below were dosed and administered as described in the Table 10 above.\nIn the morning of day 7, 14, and 28, blood was taken from the retro-orbital venous plexus from fasted anaesthetized animals. From each animal, 1 ml of blood was collected with EDTA as anticoagulant. The samples were centrifuged for generation of plasma. All plasma samples were covered with a N2 atmosphere and then stored at −80° C. until analysis.\nFor mass spectrometry-based metabolite profiling analyses plasma samples were extracted and a polar and a non-polar (lipid) fraction was obtained. For GC-MS analysis, the non-polar fraction was treated with methanol under acidic conditions to yield the fatty acid methyl esters. Both fractions were further derivatised with O-methyl-hydroxyamine hydrochloride and pyridine to convert Oxogroups to O-methyloximes and subsequently with a silylating agent before analysis. In LC-MS analysis, both fractions were reconstituted in appropriate solvent mixtures. HPLC was performed by gradient elution on reversed phase separation columns. Mass spectrometric detection which allows target and high sensitivity MRM (Multiple Reaction Monitoring) profiling in parallel to a full screen analysis was applied as described in WO2003073464.\nSteroids and their metabolites were measured by online SPE-LC-MS (Solid phase extraction-LC-MS).\nFollowing comprehensive analytical validation steps, the data for each analyte were normalized against data from pool samples. These samples were run in parallel through the whole process to account for process variability. The significance of treatment group values specific for sex, treatment duration and metabolite was determined by comparing means of the treated groups to the means of the respective untreated control groups using WELCH-test and quantified with treatment ratios versus control and p-values.\nThe identification of the most important biomarkers per toxicity pattern was done by a ranking of the analytes in the tables below. Therefore the metabolic changes in reference treatments of a given pattern (shown in the table) were compared with changes of the same metabolite in other unrelated treatments. […] The maximum absolute value of the respective TVALUE was taken to indicate the most important metabolite for the pattern.", "key": {"[1]": {"settings": "plasma, female rats, day 28, high dose, Table 6b"}, "[2]": {"settings": "plasma, male rats, day 7, high dose, Table 2a"}, "[3]": {"settings": "plasma, male rats, day 7, high dose, Table 2b"}, "[4]": {"settings": "plasma, male rats, day 14, high dose, Table 2b"}, "[5]": {"settings": "plasma, male rats, day 28, high dose, Table 2a"}, "[6]": {"settings": "plasma, male rats, day 28, high dose, Table 2b"}}, "note": "Marks after values point to notes of the source that are not given here."}
{"smiles": "CC1(C)C(C(Cl)Cl)C2(Cl)C(Cl)C(Cl)C1(Cl)C2(Cl)Cl", "note": "(stereo not shown) [Toxaphene]", "values": [{"measurement": "5-Oxoproline, plasma metabolite ratio versus control", "setting": "male rats, day 7 (m7)", "value": 0.98}, {"measurement": "Alanine, plasma metabolite ratio versus control", "setting": "male rats, day 7 (m7)", "value": 0.82}, {"measurement": "Arginine (second line of the table), plasma metabolite ratio versus control", "setting": "male rats, day 7 (m7)", "value": 0.87}, {"measurement": "Arginine, plasma metabolite ratio versus control", "setting": "male rats, day 7 (m7)", "value": 0.96}, {"measurement": "Citrulline, plasma metabolite ratio versus control", "setting": "male rats, day 7 (m7)", "value": 0.87}, {"measurement": "Glutamine, plasma metabolite ratio versus control", "setting": "male rats, day 7 (m7)", "value": 0.89}, {"measurement": "Proline, plasma metabolite ratio versus control", "setting": "male rats, day 7 (m7)", "value": 0.82}, {"measurement": "Tyrosine, plasma metabolite ratio versus control", "setting": "male rats, day 7 (m7)", "value": 0.86}, {"measurement": "5-Oxoproline, plasma metabolite ratio versus control", "setting": "male rats, day 14 (m14)", "value": 0.87}, {"measurement": "Alanine, plasma metabolite ratio versus control", "setting": "male rats, day 14 (m14)", "value": 0.87}, {"measurement": "Arginine (second line of the table), plasma metabolite ratio versus control", "setting": "male rats, day 14 (m14)", "value": 0.79}, {"measurement": "Arginine, plasma metabolite ratio versus control", "setting": "male rats, day 14 (m14)", "value": 0.78}, {"measurement": "Citrulline, plasma metabolite ratio versus control", "setting": "male rats, day 14 (m14)", "value": 1.07}, {"measurement": "Glutamine, plasma metabolite ratio versus control", "setting": "male rats, day 14 (m14)", "value": 0.77}, {"measurement": "Proline, plasma metabolite ratio versus control", "setting": "male rats, day 14 (m14)", "value": 0.86}, {"measurement": "Tyrosine, plasma metabolite ratio versus control", "setting": "male rats, day 14 (m14)", "value": 0.87}, {"measurement": "5-Oxoproline, plasma metabolite ratio versus control", "setting": "male rats, day 28 (m28)", "value": 0.81}, {"measurement": "Alanine, plasma metabolite ratio versus control", "setting": "male rats, day 28 (m28)", "value": 0.83}, {"measurement": "Arginine (second line of the table), plasma metabolite ratio versus control", "setting": "male rats, day 28 (m28)", "value": 0.84}, {"measurement": "Arginine, plasma metabolite ratio versus control", "setting": "male rats, day 28 (m28)", "value": 0.77}, {"measurement": "Citrulline, plasma metabolite ratio versus control", "setting": "male rats, day 28 (m28)", "value": 1.10}, {"measurement": "Glutamine, plasma metabolite ratio versus control", "setting": "male rats, day 28 (m28)", "value": 0.81}, {"measurement": "Proline, plasma metabolite ratio versus control", "setting": "male rats, day 28 (m28)", "value": 0.88}, {"measurement": "Tyrosine, plasma metabolite ratio versus control", "setting": "male rats, day 28 (m28)", "value": 0.79}, {"measurement": "Creatinine, ratio versus control", "setting": "plasma, male rats, day 7, high dose", "value": 1.41}, {"measurement": "Creatinine, ratio versus control", "setting": "plasma, male rats, day 14, high dose", "value": 1.45}, {"measurement": "Creatinine, ratio versus control", "setting": "plasma, male rats, day 28, high dose", "value": 1.37}]}
{"smiles": "C=CCN1C[C@H](C(=O)N(CCCN(C)C)C(=O)NCC)C[C@@H]2c3cccc4[nH]cc(c34)C[C@H]21", "note": "[Cabergoline]", "values": [{"measurement": "Isoleucine, ratio versus control", "setting": "plasma, female rats, day 28, high dose, Table 6a", "value": "1.14*"}, {"measurement": "4-Hydroxy-3-methoxyphenylglycol (HMPG), ratio versus control", "setting": "[1]", "value": "0.79*"}, {"measurement": "14-Methylhexadecanoic acid, ratio versus control", "setting": "[1]", "value": "0.74*"}, {"measurement": "16-Methylheptadecanoic acid, ratio versus control", "setting": "[1]", "value": "0.28*"}, {"measurement": "17-Methyloctadecanoic acid, ratio versus control", "setting": "[1]", "value": "0.3*"}, {"measurement": "Ceramide (d18:1,C24:1), ratio versus control", "setting": "[1]", "value": "0.39*"}, {"measurement": "Choline plasmalogen No 03, ratio versus control", "setting": "[1]", "value": "0.39*"}, {"measurement": "Homovanillic acid (HVA), ratio versus control", "setting": "[1]", "value": "0.41*"}, {"measurement": "Isopalmitic acid (C16:0), ratio versus control", "setting": "[1]", "value": "0.36*"}, {"measurement": "Lactate, ratio versus control", "setting": "[1]", "value": "0.7*"}, {"measurement": "Myristic acid (C14:0), ratio versus control", "setting": "[1]", "value": "0.33*"}, {"measurement": "Phosphatidylcholine (C16:0, C20:4), ratio versus control", "setting": "[1]", "value": 0.97}, {"measurement": "Phosphatidylcholine No 04, ratio versus control", "setting": "[1]", "value": "0.34*"}, {"measurement": "Pyruvate, ratio versus control", "setting": "[1]", "value": 0.93}, {"measurement": "3-Methoxytyrosine, ratio versus control", "setting": "rat, in vivo", "value": "1.24*"}]}
{"smiles": "CC(=O)CCCCn1c(=O)c2c(ncn2C)n(C)c1=O", "note": "[Pentoxifylline]", "values": [{"measurement": "Choline plasmalogen No 03, ratio versus control", "setting": "[2]", "value": 1.01}, {"measurement": "Creatine, ratio versus control", "setting": "[2]", "value": 0.95}, {"measurement": "Isoleucine, ratio versus control", "setting": "[2]", "value": 0.93}, {"measurement": "Valine, ratio versus control", "setting": "[2]", "value": "0.98*"}, {"measurement": "Adrenaline (Epinephrine), ratio versus control", "setting": "[3]", "value": "0.34*"}, {"measurement": "DAG (C18:1,C18:2), ratio versus control", "setting": "[3]", "value": "0.51*"}, {"measurement": "Glutamate, ratio versus control", "setting": "[3]", "value": "0.74*"}, {"measurement": "Glycerol, polar fraction, ratio versus control", "setting": "[3]", "value": "0.73*"}, {"measurement": "Metanephrine, ratio versus control", "setting": "[3]", "value": "0.48*"}, {"measurement": "Pyruvate, ratio versus control", "setting": "[3]", "value": "0.76*"}, {"measurement": "TAG No 07, ratio versus control", "setting": "[3]", "value": "0.46*"}, {"measurement": "Creatine, ratio versus control", "setting": "plasma, male rats, day 14, high dose, Table 2a", "value": "1.36*"}, {"measurement": "Adrenaline (Epinephrine), ratio versus control", "setting": "[4]", "value": 1.34}, {"measurement": "DAG (C18:1,C18:2), ratio versus control", "setting": "[4]", "value": "0.88*"}, {"measurement": "Glutamate, ratio versus control", "setting": "[4]", "value": 0.84}, {"measurement": "Glycerol, polar fraction, ratio versus control", "setting": "[4]", "value": "0.74*"}, {"measurement": "Metanephrine, ratio versus control", "setting": "[4]", "value": "0.61*"}, {"measurement": "Pyruvate, ratio versus control", "setting": "[4]", "value": "0.62*"}, {"measurement": "TAG No 07, ratio versus control", "setting": "[4]", "value": 0.93}, {"measurement": "Choline plasmalogen No 03, ratio versus control", "setting": "[5]", "value": "1.14*"}, {"measurement": "Creatine, ratio versus control", "setting": "[5]", "value": "1.18*"}, {"measurement": "Valine, ratio versus control", "setting": "[5]", "value": "1.1*"}, {"measurement": "Adrenaline (Epinephrine), ratio versus control", "setting": "[6]", "value": "0.33*"}, {"measurement": "DAG (C18:1,C18:2), ratio versus control", "setting": "[6]", "value": "0.72*"}, {"measurement": "Glutamate, ratio versus control", "setting": "[6]", "value": "0.79*"}, {"measurement": "Glycerol, polar fraction, ratio versus control", "setting": "[6]", "value": 0.8}, {"measurement": "Metanephrine, ratio versus control", "setting": "[6]", "value": "0.63*"}, {"measurement": "Pyruvate, ratio versus control", "setting": "[6]", "value": "0.74*"}, {"measurement": "TAG No 07, ratio versus control", "setting": "[6]", "value": "0.74*"}, {"measurement": "Choline plasmalogen No 03, ratio versus control", "setting": "rat, in vivo", "value": "1.29*"}, {"measurement": "Valine, ratio versus control", "setting": "rat, in vivo", "value": "1.05*"}]}
